Measurements published in BindingDB's records for doi:10.1021/acschembio.6b00747 (The University of Kansas, 2017).

Columns and labels:
Endoplasmin = Endoplasmin (Homo sapiens, UniProt P14625); assay: Fluorescence Polarization (FP) Assay; settings: pH 7.3
Experimental: (§1) Assay buffer (25 μL, 20 mM HEPES at pH 7.3, 50 mM KCl, 5 mM MgCl2, 1 mM DTT, 20 mM Na2MoO4, 0.01% NP-40, and 0.5 mg mL−1 BGG) was added to a 96-well plate (black well, black bottom) followed by the desired compound at the indicated final concentrations in DMSO (1% DMSO final concentration). Subsequently, 10 nM recombinant cGrp94/Hsp90α and 6 nM FITC-GDA were added in 50 and 25 μL assay buffer respectively, resulting in a 100 μL final volume. Plates were incubatedfor 5 h at 4 °C on a rocker. […] Percent FITC-GDA bound was determined by assigning the DMSO millipolarization unit (mP) value as the 100% bound value and 0% for FITC-GDA in assay buffer without any protein.

[1] = target: Heat shock protein HSP 90-alpha (Homo sapiens, UniProt P07900); assay: Fluorescence Polarization (FP) Assay; settings: pH 7.3
Experimental: as §1

Chain of Endoplasmin (P14625 whole entry): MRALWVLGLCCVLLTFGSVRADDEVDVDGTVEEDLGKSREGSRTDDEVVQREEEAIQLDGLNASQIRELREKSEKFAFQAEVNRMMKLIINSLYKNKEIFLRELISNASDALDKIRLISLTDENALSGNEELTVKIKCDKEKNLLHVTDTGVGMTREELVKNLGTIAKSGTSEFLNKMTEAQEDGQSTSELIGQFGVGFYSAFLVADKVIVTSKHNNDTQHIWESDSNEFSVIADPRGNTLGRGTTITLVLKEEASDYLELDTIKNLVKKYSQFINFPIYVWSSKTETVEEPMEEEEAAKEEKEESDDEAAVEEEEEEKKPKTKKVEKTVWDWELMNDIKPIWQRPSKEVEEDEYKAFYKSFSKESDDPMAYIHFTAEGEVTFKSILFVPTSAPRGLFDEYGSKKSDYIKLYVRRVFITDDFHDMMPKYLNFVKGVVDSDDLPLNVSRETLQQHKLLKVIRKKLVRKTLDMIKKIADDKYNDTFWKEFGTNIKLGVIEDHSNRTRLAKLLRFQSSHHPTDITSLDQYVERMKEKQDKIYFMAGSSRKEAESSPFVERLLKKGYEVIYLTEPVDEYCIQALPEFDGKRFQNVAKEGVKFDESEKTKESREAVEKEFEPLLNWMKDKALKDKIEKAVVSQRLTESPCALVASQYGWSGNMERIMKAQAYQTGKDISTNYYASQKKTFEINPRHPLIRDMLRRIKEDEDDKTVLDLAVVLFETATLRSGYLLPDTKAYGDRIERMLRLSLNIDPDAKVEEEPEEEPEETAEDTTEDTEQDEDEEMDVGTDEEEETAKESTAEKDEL

Compound | Kd (Endoplasmin) [µM] | Kd [1] [µM]
NC(=O)c1ccc(-n2cccc2Cc2cccc(O)c2)cc1NC1CCC(O)CC1 (stereo not given) [4-(2-(3-hydroxybenzyl)-1H-pyrrol-1-yl)-2-(((1r,4r)-4-hydroxycyclohexyl)amino)benzamide (8k)] | > 25 | > 100
NC(=O)c1ccc(-n2cccc2-c2ccccc2)cc1NC1CCC(O)CC1 (stereo not given) [2-(((1r,4r)-4-hydroxycyclohexyl)amino)-4-(2-phenyl-1H-pyrrol-1-yl)benzamide (5a)] | 9.05 | > 100
NC(=O)c1ccc(-n2cccc2Cc2cccnc2)cc1NC1CCC(O)CC1 (stereo not given) [2-(((1r,4r)-4-hydroxycyclohexyl)amino)-4-(2-(pyridin-3-ylmethyl)-1H-pyrrol-1-yl)benzamide (8p)] | 5.5 | > 100
NC(=O)c1ccc(-n2cccc2-c2ccccc2Cl)cc1NC1CCC(O)CC1 (stereo not given) [4-(2-(2-chlorophenyl)-1H-pyrrol-1-yl)-2-(((1r,4r)-4-hydroxycyclohexyl)amino)benzamide (5e)] | – | > 100
NC(=O)c1ccc(-n2cccc2Cc2ccc(Cl)cc2)cc1NC1CCC(O)CC1 (stereo not given) [4-(2-(4-chlorobenzyl)-1H-pyrrol-1-yl)-2-(((1r,4r)-4-hydroxycyclohexyl)amino)benzamide (8d)] | > 25 | > 100
NC(=O)c1ccc(-n2cccc2Cc2ccncc2)cc1NC1CCC(O)CC1 (stereo not given) [2-(((1r,4r)-4-hydroxycyclohexyl)amino)-4-(2-(pyridin-4-ylmethyl)-1H-pyrrol-1-yl)benzamide (8q)] | 13.2 | > 100
NC(=O)c1ccc(-n2cccc2-c2cccc(Cl)c2)cc1NC1CCC(O)CC1 (stereo not given) [4-(2-(3-chlorophenyl)-1H-pyrrol-1-yl)-2-(((1r,4r)-4-hydroxycyclohexyl)amino)benzamide (5f)] | – | > 100
NC(=O)c1ccc(-n2cccc2Cc2cccc(Cl)c2)cc1NC1CCC(O)CC1 (stereo not given) [4-(2-(3-chlorobenzyl)-1H-pyrrol-1-yl)-2-(((1r,4r)-4-hydroxycyclohexyl)amino)benzamide (8c)] | 2.45 | > 100
NC(=O)c1ccc(-n2cccc2CCc2ccccc2)cc1NC1CCC(O)CC1 (stereo not given) [2-(((1r,4r)-4-hydroxycyclohexyl)amino)-4-(2-phenethyl-1H-pyrrol-1-yl)benzamide (9)] | > 25 | > 100
NC(=O)c1ccc(-n2cccc2Cc2ccccc2F)cc1NC1CCC(O)CC1 (stereo not given) [4-(2-(2-fluorobenzyl)-1H-pyrrol-1-yl)-2-(((1r,4r)-4-hydroxycyclohexyl)amino)benzamide (8e)] | 0.72 | > 100
NC(=O)c1ccc(-n2cccc2Cc2ccccc2)cc1NC1CCC(O)CC1 (stereo not given) [4-(2-benzyl-1H-pyrrol-1-yl)-2-(((1r,4r)-4-hydroxycyclohexyl)amino)benzamide (8a)] | 1.13 | > 100
NC(=O)c1ccc(-n2cccc2Cc2c(F)cccc2F)cc1N[C@H]1CC[C@H](O)CC1 [4-(2-(2,6-difluorobenzyl)-1H-pyrrol-1-yl)-2-(((1r,4r)-4hydroxycyclohexyl)amino)benzamide (8n)] | > 25 | –

Now from value to compound:

Kd (Endoplasmin) [µM] | Kd [1] [µM] | Compound
13.2 | > 100 | NC(=O)c1ccc(-n2cccc2-c2ccncc2)cc1NC1CCC(O)CC1 (stereo not given) [2-(((1r,4r)-4-hydroxycyclohexyl)amino)-4-(2-(pyridin-4-yl)-1H-pyrrol-1-yl)benzamide (5j)]
9.9 | > 100 | Cc1ccccc1-c1cccn1-c1ccc(C(N)=O)c(NC2CCC(O)CC2)c1 (stereo not given) [2-(((1r,4r)-4-hydroxycyclohexyl)amino)-4-(2-(o-tolyl)-1H-pyrrol-1-yl)benzamide (5b)]
1.15 | > 100 | COc1ccccc1Cc1cccn1-c1ccc(C(N)=O)c(NC2CCC(O)CC2)c1 (stereo not given) [2-(((1r,4r)-4-hydroxycyclohexyl)amino)-4-(2-(2-methoxybenzyl)-1H-pyrrol-1-yl)benzamide (8m)]
9.43 | > 100 | Cc1cccc(-c2cccn2-c2ccc(C(N)=O)c(NC3CCC(O)CC3)c2)c1 (stereo not given) [2-(((1r,4r)-4-hydroxycyclohexyl)amino)-4-(2-(m-tolyl)-1H-pyrrol-1-yl)benzamide (5c)]
10.6 | > 100 | NC(=O)c1ccc(-n2cccc2-c2ccc(Cl)cc2)cc1NC1CCC(O)CC1 (stereo not given) [4-(2-(4-chlorophenyl)-1H-pyrrol-1-yl)-2-(((1r,4r)-4-hydroxycyclohexyl)amino)benzamide (5g)]
5.5 | > 100 | NC(=O)c1ccc(-n2cccc2-c2cccnc2)cc1NC1CCC(O)CC1 (stereo not given) [2-(((1r,4r)-4-hydroxycyclohexyl)amino)-4-(2-(pyridin-3-yl)-1H-pyrrol-1-yl)benzamide (5i)]
– | > 100 | NC(=O)c1ccc(-n2cccc2Cc2ccc(O)cc2)cc1NC1CCC(O)CC1 (stereo not given) [4-(2-(4-hydroxybenzyl)-1H-pyrrol-1-yl)-2-(((1r,4r)-4-hydroxycyclohexyl)amino)benzamide (8l)]
0.83 | > 100 | NC(=O)c1ccc(-n2cccc2Cc2ccccc2Cl)cc1NC1CCC(O)CC1 (stereo not given) [4-(2-(2-chlorobenzyl)-1H-pyrrol-1-yl)-2-(((1r,4r)-4-hydroxycyclohexyl)amino)benzamide (8b)]
12.9 | > 100 | NC(=O)c1ccc(-n2cccc2Cc2ccccc2Br)cc1NC1CCC(O)CC1 (stereo not given) [4-(2-(2-bromobenzyl)-1H-pyrrol-1-yl)-2-(((1r,4r)-4-hydroxycyclohexyl)amino)benzamide (8h)]
8.35 | > 100 | NC(=O)c1ccc(-n2cccc2Cc2ccc(F)cc2)cc1NC1CCC(O)CC1 (stereo not given) [4-(2-(4-fluorobenzyl)-1H-pyrrol-1-yl)-2-(((1r,4r)-4-hydroxycyclohexyl)amino)benzamide (8g)]
4.53 | > 100 | NC(=O)c1ccc(-n2cccc2Cc2cccc(F)c2)cc1NC1CCC(O)CC1 (stereo not given) [4-(2-(3-fluorobenzyl)-1H-pyrrol-1-yl)-2-(((1r,4r)-4-hydroxycyclohexyl)amino)benzamide (8f)]
14 | > 100 | NC(=O)c1ccc(-n2cccc2-c2ccccn2)cc1NC1CCC(O)CC1 (stereo not given) [2-(((1r,4r)-4-hydroxycyclohexyl)amino)-4-(2-(pyridin-2-yl)-1H-pyrrol-1-yl)benzamide (5h)]
8.35 | > 100 | Cc1ccc(-c2cccn2-c2ccc(C(N)=O)c(NC3CCC(O)CC3)c2)cc1 (stereo not given) [2-(((1r,4r)-4-hydroxycyclohexyl)amino)-4-(2-(p-tolyl)-1H-pyrrol-1-yl)benzamide (5d)]
14 | > 100 | NC(=O)c1ccc(-n2cccc2Cc2ccccn2)cc1NC1CCC(O)CC1 (stereo not given) [2-(((1r,4r)-4-hydroxycyclohexyl)amino)-4-(2-(pyridin-2-ylmethyl)-1H-pyrrol-1-yl)benzamide (8o)]
4.2 | > 100 | Cc1ccccc1Cc1cccn1-c1ccc(C(N)=O)c(NC2CCC(O)CC2)c1 (stereo not given) [2-(((1r,4r)-4-hydroxycyclohexyl)amino)-4-(2-(2-methylbenzyl)-1H-pyrrol-1-yl)benzamide (8i)]
